Experimental data reported in the supplement of paper PMC10307832.

Tests used:
Assay in all cases: relative viability (nuclei count vs DMSO), 5 days (fraction); higher = more cells survive
BAM7 + AZD7762 = compound: CCOC1=CC=CC=C1N=NC2=C(NN(C2=O)C3=NC(=CS3)C4=CC=CC=C4)C [BAM7] + NC(=O)Nc1cc(-c2cccc(F)c2)sc1C(=O)N[C@H]1CCCNC1 [AZD7762] (partner 0.2 µM)
Outline: (§1)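 After 5 days of treatment, lung cancer cells in 1536-well plates were fixed and stained in a single step (final 0.05% Triton X-100, 1% formaldehyde, 1 ug/ml Hoechst) and their nuclei counted on 4× images. Treatment had been applied by pin tool the day after seeding as one drug alone or as a fixed anchor-drug dose with five library-drug doses (not always all listed) in √10 steps. Relative viability is the nuclei count of treated wells divided by that of vehicle wells, and values are medians of duplicate plates.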

BAM7 + Trametinib = compound: CCOC1=CC=CC=C1N=NC2=C(NN(C2=O)C3=NC(=CS3)C4=CC=CC=C4)C [BAM7] + CC(=O)Nc1cccc(-n2c(=O)n(C3CC3)c(=O)c3c(Nc4ccc(I)cc4F)n(C)c(=O)c(C)c32)c1 [Trametinib] (partner 0.02 µM)
Outline: as §1

[1] = compound: CCn1c(-c2nonc2N)nc2c(C#CC(C)(C)O)ncc(OC[C@H]3CCCNC3)c21 + N=C(N)NC(=N)NCCc1ccccc1 [Phenformin] (partner 250 µM)
Outline: as §1

BAM7 + Pictilisib = compound: CCOC1=CC=CC=C1N=NC2=C(NN(C2=O)C3=NC(=CS3)C4=CC=CC=C4)C [BAM7] + CS(=O)(=O)N1CCN(Cc2cc3nc(-c4cccc5[nH]ncc45)nc(N4CCOCC4)c3s2)CC1 [Pictilisib] (partner 1 µM)
Outline: as §1

Row | Cell Line | relative viability (BAM7 + AZD7762; first compound 0.5 µM) | relative viability (BAM7 + AZD7762; first compound 5 µM) | relative viability (BAM7 + AZD7762; first compound 15.81 µM) | relative viability (BAM7 + AZD7762; first compound 50 µM) | relative viability (BAM7 + Trametinib; first compound 0.5 µM) | relative viability (BAM7 + Trametinib; first compound 5 µM) | relative viability (BAM7 + Trametinib; first compound 15.81 µM) | relative viability (BAM7 + Trametinib; first compound 50 µM) | relative viability ([1]; first compound 0.01 µM) | relative viability ([1]; first compound 0.03162 µM) | relative viability ([1]; first compound 0.3162 µM) | relative viability ([1]; first compound 1 µM) | relative viability (BAM7 + Pictilisib; first compound 0.5 µM) | relative viability (BAM7 + Pictilisib; first compound 5 µM) | relative viability (BAM7 + Pictilisib; first compound 15.81 µM) | relative viability (BAM7 + Pictilisib; first compound 50 µM) | relative viability ([1]; first compound 0.1 µM)
1 | NCI-H2347 | 0.768 | 0.657 | 0.902 | 0.794 | 0.326 | 0.32 | 0.277 | 0.287 | 0.442 | 0.307 | 0.381 | 0.396 | 0.639 | 0.746 | 0.598 | 0.913 | 
2 | NCI-H1355 | 0.654 | 0.66 | 0.68 | 0.697 | 0.399 | 0.386 | 0.317 | 0.457 | 0.488 | 0.458 | 0.434 | 0.483 | 0.462 | 0.41 | 0.384 | 0.435 | 0.417
3 | NCI-H358 | 0.62 | 0.519 | 0.5 | 0.55 |  | 0.152 | 0.137 | 0.126 | 0.39 | 0.321 | 0.315 | 0.32 | 0.296 | 0.366 | 0.327 | 0.359 | 0.338
4 | PC-3 [JPC-3] | 0.889 | 0.74 | 0.64 | 0.686 | 0.592 | 0.722 | 0.637 | 0.617 | 0.504 | 0.451 | 0.463 | 0.474 | 0.693 | 0.736 | 0.612 | 0.631 | 0.469
5 | NCI-H2228 |  |  |  |  | 0.601 | 0.523 | 0.41 | 0.547 | 0.363 | 0.36 | 0.277 | 0.204 | 0.407 | 0.429 | 0.34 | 0.429 | 0.298
6 | HOP-62 | 0.648 | 0.917 | 0.733 | 0.342 | 0.37 | 0.416 | 0.376 | 0.352 | 0.662 | 0.687 | 0.649 | 0.687 | 0.664 | 0.729 | 0.742 | 0.799 | 0.635
7 | HARA | 0.21 | 0.269 | 0.356 | 0.195 | 0.827 | 0.886 | 0.607 | 1.13 | 0.361 | 0.445 | 0.451 | 0.495 | 0.327 | 0.267 | 0.334 | 0.264 | 0.426
8 | NCI-H838 | 0.919 | 0.968 | 0.862 | 1 | 0.504 | 0.524 | 0.498 | 0.494 | 0.564 | 0.557 | 0.521 | 0.583 | 0.487 | 0.421 | 0.449 | 0.441 | 0.685
9 | NCI-H1755 | 0.472 | 0.437 | 0.495 | 0.405 | 0.749 | 0.805 | 0.705 | 0.779 | 0.604 | 0.606 | 0.613 | 0.605 | 0.454 | 0.409 | 0.366 | 0.415 | 0.614
10 | HCC-78 | 0.635 | 1.4 | 0.702 | 0.627 | 0.579 | 0.805 | 0.689 | 0.819 | 0.655 | 0.755 | 0.588 | 0.67 | 0.178 | 0.177 | 0.213 | 0.245 | 0.711
